Test results: ChEMBL document CHEMBL6087417, “The synthesis and antileukemic activity of 5-substituted thiazolyl urea derivatives” (Bioorg Med Chem Lett, 2025)

Columns and labels:
THP-1 = test: Antileukemic activity against human THP-1 cells assessed as inhibition of cell proliferation by MTS assay; assay type: functional, cell-based
MV4-11 = test: Antileukemic activity against human MV4-11 cells assessed as inhibition of cell proliferation by MTS assay; assay type: functional, cell-based
[1] = Cytotoxicity against PBMC (unknown origin) assessed as cell survival at 20 uM relative to control; assay type: toxicity, cell-based; conditions: read-out: Survival

IC50 (THP-1) [nM]	IC50 (MV4-11) [nM]	SMILES	viability at 20 µM [1] [%]
270	310	COc1ccc(Cc2cnc(NC(=O)N3CCCN(c4ccc(Cl)cc4)CC3)s2)cc1	
210	130	COc1cccc(Cc2cnc(NC(=O)N3CCN(c4ccc(Cl)cc4)CC3)s2)c1	
> 20000	> 20000	O=C(Nc1ncc(Cc2cccc(Br)c2)s1)N1CCN(c2cccc(F)n2)CC1	
360	190	COc1ccccc1Cc1cnc(NC(=O)N2CCN(c3ccc(Cl)cc3)CC2)s1	
110	140	O=C(Nc1ncc(Cc2cccc(O)c2)s1)N1CCN(c2ccc(Cl)cc2)CC1	
> 20000	5310	Cc1ccnc(N2CCN(C(=O)Nc3ncc(Cc4cccc(Br)c4)s3)CC2)c1	
> 20000	> 20000	O=C(Nc1ncc(Cc2cccc(Br)c2)s1)N1CCN(Cc2ccc(Cl)cc2)CC1	
190	170	O=C(Nc1ncc(Cc2cccc(Br)c2)s1)N1CCN(c2ccc(F)cc2)CC1	
1610	1320	O=C(Nc1ncc(Cc2cccc(Br)c2)s1)N1CCN(c2ccccc2Cl)CC1	
> 20000	> 20000	O=C(Nc1ncc(Cc2cccc(Br)c2)s1)N1CCN(c2cc(Cl)cc(Cl)c2)CC1	
> 20000	> 20000	Cc1cccc(N2CCN(C(=O)Nc3ncc(Cc4cccc(Br)c4)s3)CC2)n1	
3240	2410	CC1CCN(C(=O)Nc2ncc(Cc3cccc(Br)c3)s2)CC1	
330	260	O=C(Nc1ncc(Cc2cccc(Br)c2)s1)N1CCN(c2ccc(Cl)cc2)CC1	
370	550	O=C(Nc1ncc(Cc2ccc(Br)cc2)s1)N1CCN(c2ccc(Cl)cc2)CC1	
130	130	COCc1cccc(Cc2cnc(NC(=O)N3CCN(c4ccc(Cl)cc4)CC3)s2)c1	
1780	1110	Cc1ccc(N2CCN(C(=O)Nc3ncc(Cc4ccc(Br)cc4)s3)CC2)cc1	
> 20000	> 20000	O=C(Nc1ncc(Cc2cccc(Br)c2)s1)N1CCN(c2cc(C(F)(F)F)cc(C(F)(F)F)c2)CC1	
> 20000	4990	O=C(Nc1ncc(Cc2ccccc2C(F)(F)F)s1)N1CCN(c2ccc(Cl)cc2)CC1	
370	300	O=C(Nc1ncc(Cc2cccc(C(F)(F)F)c2)s1)N1CCN(c2ccc(Cl)cc2)CC1	
> 20000	> 20000	O=C(Nc1ncc(Cc2ccc(Br)cc2)s1)N1CCN(c2ccc(O)cc2)CC1	
> 20000	> 20000	O=C(Nc1ncc(Cc2cccc(Br)c2)s1)N1CCN(S(=O)(=O)c2ccc(Cl)cc2)CC1	
660	890	N#Cc1ccc(N2CCN(C(=O)Nc3ncc(Cc4cccc(Br)c4)s3)CC2)cc1	
> 20000	16800	O=C(Nc1ncc(Cc2cccc(Br)c2)s1)N1CCN(c2cccc(Cl)n2)CC1	
3480	2880	Cc1ccc(N2CCN(C(=O)Nc3ncc(Cc4cccc(Br)c4)s3)CC2)cc1	
> 20000	14800	CC1CN(C(=O)Nc2ncc(Cc3cccc(Br)c3)s2)CCN1c1ccc(Cl)cc1 (configuration not stated)	
1110	160	O=C(Nc1ncc(Cc2ccccc2Cl)s1)N1CCN(c2ccc(Cl)cc2)CC1	
> 20000	> 20000	CC(C)Oc1cccc(Cc2cnc(NC(=O)N3CCN(c4ccc(Cl)cc4)CC3)s2)c1	

IC50 (THP-1) [nM]	IC50 (MV4-11) [nM]	SMILES	viability at 20 µM [1] [%]
> 20000	9730	O=C(Nc1ncc(Cc2cccc(Br)c2)s1)N1C2CC[C@@H]1CN(c1ccc(Cl)cc1)C2	
290	310	COc1ccc(Cc2cnc(NC(=O)N3C4CC[C@@H]3CN(c3ccc(Cl)cc3)C4)s2)cc1	
> 20000	> 20000	O=C(Nc1ncc(Cc2cccc(Br)c2)s1)N1CCCN(c2ccc(Cl)cc2)CC1	
> 20000	210	Cc1cccc(Cc2cnc(NC(=O)N3CCN(c4ccc(Cl)cc4)CC3)s2)c1	
1390	1490	CC1CCN(C(=O)Nc2ncc(Cc3ccc(Br)cc3)s2)CC1	
680	620	O=C(Nc1ncc(Cc2cccc(Br)c2)s1)N1CCN(c2ccc(Cl)cn2)CC1	
4050	1850	O=C(Nc1ncc(Cc2ccc(Br)cc2)s1)N1CCN(c2ccccc2)CC1	
> 20000	4500	O=C(Nc1ncc(Cc2cccc(Br)c2)s1)N1CCN(c2ccc(C(F)(F)F)cc2)CC1	
> 20000	> 20000	O=C(Nc1ncc(Cc2cccc(Br)c2)s1)N1CCN(c2cccc(C(F)(F)F)n2)CC1	
1300	1120	O=C(Nc1ncc(Cc2ccccc2Br)s1)N1CCN(c2ccc(Cl)cc2)CC1	
> 20000	> 20000	O=C(Nc1ncc(Cc2cccc(OCCCN3CCOCC3)c2)s1)N1CCN(c2ccc(Cl)cc2)CC1	
> 20000	9980	O=C(Nc1ncc(Cc2cccc(Br)c2)s1)N1CCN(c2cccc(Cl)c2)CC1	
4080	1310	O=C(Nc1ncc(Cc2cccc(Br)c2)s1)N1CCN(c2ccccc2)CC1	
> 20000	11100	O=C(Nc1ncc(Cc2cccc(Br)c2)s1)N1CC2CC1CN2c1ccc(Cl)cc1 (configuration not stated)	
9580	2800	Cc1ccc(N2CCN(C(=O)Nc3ncc(Cc4ccccc4Br)s3)CC2)cc1	
180	230	O=C(Nc1ncc(Cc2ccc(C(F)(F)F)cc2)s1)N1CCN(c2ccc(Cl)cc2)CC1	
3840	1890	CC1CCN(C(=O)Nc2ncc(Cc3ccccc3Br)s2)CC1	
2410	1460	O=C(Nc1ncc(Cc2ccccc2Br)s1)N1CCN(c2ccccc2)CC1	
> 20000	> 20000	CCOc1cccc(Cc2cnc(NC(=O)N3CCN(c4ccc(Cl)cc4)CC3)s2)c1	
200	390	O=C(Nc1ncc(Cc2cccc(Cl)c2)s1)N1CCN(c2ccc(Cl)cc2)CC1	
> 20000	2050	O=C(Nc1ncc(Cc2cccc(Br)c2)s1)N1CCN(c2ccc([N+](=O)[O-])cc2)CC1	
170	210	O=C(Nc1ncc(Cc2ccc(Cl)cc2)s1)N1CCN(c2ccc(Cl)cc2)CC1	
> 20000	> 20000	O=C(Nc1ncc(Cc2cccc(Br)c2)s1)N1CCN(c2cccc(Br)n2)CC1	
> 20000	> 20000	O=C(Nc1ncc(Cc2cccc(Br)c2)s1)N1CCN(C(=O)c2ccc(Cl)cc2)CC1	
460		Nc1ccn([C@@H]2O[C@H](CO)[C@@H](O)[C@@H]2O)c(=O)n1 [CYTARABINE]	
	24	CCc1nc(C(N)=O)c(Nc2ccc(N3CCC(N4CCN(C)CC4)CC3)c(OC)c2)nc1NC1CCOCC1 [GILTERITINIB]	

SMILES	IC50 (THP-1) [nM]	IC50 (MV4-11) [nM]	viability at 20 µM [1] [%]
COc1ccc(Cc2cnc(NC(=O)N3CCN(c4ccc(Cl)cc4)CC3)s2)cc1	29	98	91.7
